This is an account of results in patent US20130109682A1, “CYCLIC ETHER COMPOUNDS USEFUL AS KINASE INHIBITORS” (NOVARTIS AG, priority 2010, published 2013).

In assay [1] the target is PIM2 (Homo sapiens, UniProt Q9P1W9). The assay can be described thus: KinaseGlo Pim2 ATP depletion assay. In kind it is biochemical. The gist of the method:
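Luminescent ATP-depletion read-out of PIM2 phosphorylating BAD peptide (RSRHSSYPAGT-OH). Final conditions: 5 nM PIM2, 4 μM ATP, 10 μM peptide, 2.5% DMSO in 50 mM HEPES pH 7.5, 5 mM MgCl2, 1 mM DTT, 0.05% BSA. Enzyme–peptide preincubated 15 min with compound; reaction run to ~50% ATP depletion.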

In assay [2] the target is PIM3 (Homo sapiens, UniProt Q86V86). The assay can be described thus: KinaseGlo Pim3 ATP depletion assay. The format is biochemical. In a few lines:
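Kinase was preincubated 15 min with BAD peptide in HEPES pH 7.5/MgCl2/DTT/BSA before ATP was added. Final concentrations were 40 μM ATP, 100 μM BAD peptide and 2.5% DMSO, with 5 nM enzyme. The reaction ran to ~50% ATP depletion and remaining ATP was read by KinaseGlo Plus luminescence.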

In assay [3] the test system is KMS11 (human myeloma cell line). The assay can be described thus: Cell proliferation assay (CellTiter-Glo), KMS11. The format is cell-based. Conditions: Homo sapiens, KMS-11; KMS11-Luc cells. In a few lines: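 KMS11 cells in IMDM with 10% FBS and sodium pyruvate, seeded at 2000 cells/well on assay day. Compound added at 2× to equal volume of cells, incubated 3 days at 37° C. Viability read by CellTiter-Glo luminescence; EC50 derived.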

Assay [4] has as its target PIM1 (Homo sapiens, UniProt P11309). The assay can be described thus: KinaseGlo Pim1 ATP depletion assay. In kind it is biochemical. In a few lines:
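2.5 nM PIM1 preincubated 15 min with compound and 40 μM BAD peptide in 50 mM HEPES pH 7.5, 5 mM MgCl2, 1 mM DTT, 0.05% BSA, 2.5% DMSO. The reaction was started with 20 μM ATP (final) and run to about 50% ATP depletion. Remaining ATP read by KinaseGlo Plus luminescence to give IC50.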

Assay [5] concerns the target GSK3β (Homo sapiens, UniProt P49841). The assay can be described thus: GSK3β ATP depletion assay. In kind it is biochemical. As to conditions: read-out: GSK3b IC50. In a few lines: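 Human GSK3β (5 nM) preincubated 15 min with 10 μM biotinylated phospho-CREB peptide in pH 7.5 Tris buffer (15 mM MgCl2, 1 mM DTT, 0.1% BSA, 2.5% DMSO). Reaction started with 2 μM ATP and run to about 50% ATP depletion. Remaining ATP measured by KinaseGlo luminescence.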

Sequence of GSK3β (P49841 whole entry, species assumed): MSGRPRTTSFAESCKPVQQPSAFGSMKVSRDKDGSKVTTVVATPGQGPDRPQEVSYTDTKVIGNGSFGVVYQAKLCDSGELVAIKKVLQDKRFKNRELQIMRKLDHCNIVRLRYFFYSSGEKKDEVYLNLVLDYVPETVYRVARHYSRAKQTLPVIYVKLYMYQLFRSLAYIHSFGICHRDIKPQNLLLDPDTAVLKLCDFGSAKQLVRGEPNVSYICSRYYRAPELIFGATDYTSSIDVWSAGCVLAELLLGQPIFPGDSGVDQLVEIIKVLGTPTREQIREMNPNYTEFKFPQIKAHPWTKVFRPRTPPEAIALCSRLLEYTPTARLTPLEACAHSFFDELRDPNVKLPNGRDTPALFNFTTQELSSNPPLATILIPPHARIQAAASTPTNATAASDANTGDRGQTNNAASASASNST
Sequence of PIM1 (P11309 whole entry): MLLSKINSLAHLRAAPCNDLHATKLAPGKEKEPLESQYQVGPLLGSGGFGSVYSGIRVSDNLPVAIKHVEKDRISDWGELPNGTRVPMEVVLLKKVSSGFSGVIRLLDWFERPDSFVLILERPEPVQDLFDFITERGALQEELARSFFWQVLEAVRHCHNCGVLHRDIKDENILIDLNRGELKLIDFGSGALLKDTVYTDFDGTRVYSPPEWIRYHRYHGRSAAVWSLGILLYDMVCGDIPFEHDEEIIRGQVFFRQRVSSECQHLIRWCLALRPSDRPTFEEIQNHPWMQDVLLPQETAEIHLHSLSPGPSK
Sequence of PIM2 (Q9P1W9 whole entry): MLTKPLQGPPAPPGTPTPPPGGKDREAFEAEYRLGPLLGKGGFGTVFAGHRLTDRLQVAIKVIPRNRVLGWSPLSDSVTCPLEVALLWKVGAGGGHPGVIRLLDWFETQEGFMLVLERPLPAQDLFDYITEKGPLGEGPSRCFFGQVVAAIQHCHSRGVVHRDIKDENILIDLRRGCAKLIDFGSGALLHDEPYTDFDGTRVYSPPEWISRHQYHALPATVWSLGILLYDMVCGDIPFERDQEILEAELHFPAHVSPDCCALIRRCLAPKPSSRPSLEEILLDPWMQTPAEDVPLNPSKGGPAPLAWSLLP

Take `C[C@H]1O[C@@H](c2ccncc2NC(=O)c2ccc(F)c(-c3ccccc3F)n2)C[C@@H](O)[C@]1(C)O` [Example 93, N-(4-((2R,4R,5S,6R)-4,5-dihydroxy-5,6-dimethyltetrahydro-2H-pyran-2-yl)pyridin-3-yl)-5-fluoro-6-(2-fluorophenyl)picolinamide]: the IC50 was 59 nM in assay [1], 5 nM in assay [2], 1 nM in assay [4] and 117 nM in assay [5]. In assay [3], this compound registered a concentration giving a half-maximal response (EC50) greater than 10000 nM.

Consider `O=C(Nc1cnccc1[C@@H]1OCC[C@H](CO)O1)c1csc(-c2c(F)cccc2F)n1` [Example 99, 2-(2,6-difluorophenyl)-N-(4-((2R,4R)-4-(hydroxymethyl)-1,3-dioxan-2-yl)pyridin-3-yl)thiazole-4-carboxamide], for which the IC50 in assay [1] is 3380 nM; in assay [2], 75 nM; in assay [4], 14 nM; in assay [5], 3170 nM. For the same compound, in assay [3], the EC50 is greater than 10000 nM.

`O=C(Nc1cnccc1[C@@H]1OCC[C@H](CO)O1)c1ccc(F)c(-c2c(F)cccc2F)n1` [Example 100, 6-(2,6-difluorophenyl)-5-fluoro-N-(4-((2R,4R)-4-(hydroxymethyl)-1,3-dioxan-2-yl)pyridin-3-yl)picolinamide]: the IC50 in assay [1] came to 799 nM; in assay [2], 42 nM; in assay [4], 10 nM; in assay [5], 2470 nM. In assay [3], this compound registered an EC50 greater than 10000 nM.

`O=C(Nc1cnccc1[C@H]1OC[C@H](CO)O1)c1ccc(F)c(-c2c(F)cccc2F)n1` [Example 101, 6-(2,6-difluorophenyl)-5-fluoro-N-(4-((2S,4S)-4-(hydroxymethyl)-1,3-dioxolan-2-yl)pyridin-3-yl)picolinamide]: the IC50 in assay [1] was 1340 nM; in assay [2], 68 nM; in assay [4], 12 nM; in assay [5], 2600 nM. The compound further showed a concentration for a half-maximal effect (EC50) in assay [3] greater than 10000 nM.

`O=C(Nc1cnccc1[C@H]1OCC[C@@H](CO)O1)c1csc(-c2c(F)cccc2F)n1` [Example 102, 2-(2,6-difluorophenyl)-N-(4-((2S,4S)-4-(hydroxymethyl)-1,3-dioxan-2-yl)pyridin-3-yl)thiazole-4-carboxamide]: the IC50 in assay [1] stood at 2890 nM; in assay [2], 103 nM; in assay [4], 28 nM; in assay [5], 2000 nM. In assay [3], the EC50 is greater than 10000 nM.

Consider `O=C(Nc1cnccc1[C@H]1OCC[C@@H](CO)O1)c1ccc(F)c(-c2c(F)cccc2F)n1` [Example 103, 6-(2,6-difluorophenyl)-5-fluoro-N-(4-((2S,4S)-4-(hydroxymethyl)-1,3-dioxan-2-yl)pyridin-3-yl)picolinamide], for which the 50% inhibitory concentration (IC50) in assay [1] stood at 502 nM; in assay [2] it was 27 nM; in assay [4], 11 nM; in assay [5], 2420 nM. This compound came in with a half-maximal effective concentration (EC50) in assay [3] greater than 10000 nM.

`CC(C)NC(=O)c1ccc(F)c(-c2nc(C(=O)Nc3cnccc3[C@H]3C[C@@H](O)[C@](C)(O)[C@@H](C)O3)ccc2F)c1` [Example 105, N-(4-((2R,4R,5S,6R)-4,5-dihydroxy-5,6-dimethyltetrahydro-2H-pyran-2-yl)pyridin-3-yl)-5-fluoro-6-(2-fluoro-5-(isopropylcarbamoyl)phenyl)picolinamide]: the half-maximal inhibitory concentration (IC50) was determined as 50 nM in assay [1], 6 nM in assay [2], 1 nM in assay [4] and 1180 nM in assay [5]. Further, in assay [3], it took 4700 nM to reach a half-maximal effect (EC50).

`CC(C)NC(=O)c1ccc(F)c(-c2cccc(C(=O)Nc3cnccc3[C@H]3C[C@@H](O)[C@](C)(O)[C@@H](C)O3)n2)c1` [Example 106, N-(4-((2R,4R,5S,6R)-4,5-dihydroxy-5,6-dimethyltetrahydro-2H-pyran-2-yl)pyridin-3-yl)-6-(2-fluoro-5-(isopropylcarbamoyl)phenyl)picolinamide]: the half-inhibitory concentration (IC50) is 78 nM in assay [1], 15 nM in assay [2], 7 nM in assay [4] and 3590 nM in assay [5]. For the same compound, in assay [3], the EC50 was found to be 9200 nM.
